# In ChEMBL document CHEMBL1138245, “Discovery of N1-(6-chloroimidazo[2,1-b][1,3]thiazole-5-sulfonyl)tryptamine as a potent, selective, and orally active 5-HT(6) receptor agonist” (J Med Chem, 2007):
# Tests used:
# [1] = target: T1, 5-hydroxytryptamine receptor 6 (Homo sapiens, UniProt P50406); test: Displacement of [3H]LSD from human 5HT6 receptor expressed in HeLa cells; type: cell-based
# [2] = target: T1, 5-hydroxytryptamine receptor 6; test: Agonist activity at human 5HT6 receptor expressed in HeLa cells assessed as cAMP production; type: functional, cell-based
# T1 sequence (P50406 whole entry): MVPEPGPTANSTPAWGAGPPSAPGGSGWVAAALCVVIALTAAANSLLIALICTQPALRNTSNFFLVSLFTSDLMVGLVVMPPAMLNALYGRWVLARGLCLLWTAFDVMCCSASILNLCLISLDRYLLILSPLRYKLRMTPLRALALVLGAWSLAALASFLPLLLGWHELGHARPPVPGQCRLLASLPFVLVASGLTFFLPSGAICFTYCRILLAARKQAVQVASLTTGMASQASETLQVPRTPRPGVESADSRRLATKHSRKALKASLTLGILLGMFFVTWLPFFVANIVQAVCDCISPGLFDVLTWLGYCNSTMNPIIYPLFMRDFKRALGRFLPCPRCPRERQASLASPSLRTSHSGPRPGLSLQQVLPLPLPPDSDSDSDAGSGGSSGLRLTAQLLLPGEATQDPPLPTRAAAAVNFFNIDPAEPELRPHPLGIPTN
Compound,Ki [1],EC50 [2],Emax [2]
NCCc1cn(S(=O)(=O)c2ccccc2Br)c2ccccc12,11 nM,148 nM,97.5%
NCCc1cn(S(=O)(=O)c2ccc(N)cc2)c2ccccc12,1 nM,91 nM,73%
